Experimental data taken from publication PMC10746543, “Design principles for cyclin K molecular glue degraders” (Nature Chemical Biology, 2023).
Where “and” joins values, the source holds several entries; their conditions need not be identical. Equal entries are not always repeated. Where two headings read alike, the source gives them in different places.

What was measured:
CDK12–cyclin K and DDB1 [1] = target: T1, CDK12–cyclin K and DDB1 (Homo sapiens, UniProt Q16531+Q9NYV4, K965R); assay: TR-FRET ternary complex formation assay (compound titration); type: binding
T1 construct: His6–CDK12 (a.a. 713–1,052); full-length or beta-propeller B domain deletion (ΔBPB: a.a. 396–705 deleted) constructs of His6–DDB1ΔBPB, StrepII–Avi–DDB1, or His6–Spy–DDB1; made in house; host or cells: Trichoplusia ni High Five insect cells (baculovirus)
T1 sequence (Q9NYV4 713-1052 K965R): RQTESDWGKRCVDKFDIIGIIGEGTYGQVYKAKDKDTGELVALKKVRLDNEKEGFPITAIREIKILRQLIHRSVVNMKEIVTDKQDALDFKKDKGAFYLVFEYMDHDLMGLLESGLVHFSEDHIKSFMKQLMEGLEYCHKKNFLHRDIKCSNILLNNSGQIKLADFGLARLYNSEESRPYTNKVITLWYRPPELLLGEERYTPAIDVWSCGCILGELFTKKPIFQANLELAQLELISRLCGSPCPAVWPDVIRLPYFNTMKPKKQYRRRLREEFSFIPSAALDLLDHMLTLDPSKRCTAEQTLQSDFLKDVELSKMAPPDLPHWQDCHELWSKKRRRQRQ
T1 sequence (O75909 1-267 partner): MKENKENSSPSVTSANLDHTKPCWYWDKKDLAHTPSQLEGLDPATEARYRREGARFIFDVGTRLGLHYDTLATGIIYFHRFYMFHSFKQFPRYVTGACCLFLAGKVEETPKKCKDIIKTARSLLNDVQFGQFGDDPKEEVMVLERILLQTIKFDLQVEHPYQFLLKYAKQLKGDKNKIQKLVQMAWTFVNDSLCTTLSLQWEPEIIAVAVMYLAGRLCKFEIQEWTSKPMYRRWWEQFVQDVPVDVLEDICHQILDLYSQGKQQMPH
T1 sequence (Q16531 whole entry): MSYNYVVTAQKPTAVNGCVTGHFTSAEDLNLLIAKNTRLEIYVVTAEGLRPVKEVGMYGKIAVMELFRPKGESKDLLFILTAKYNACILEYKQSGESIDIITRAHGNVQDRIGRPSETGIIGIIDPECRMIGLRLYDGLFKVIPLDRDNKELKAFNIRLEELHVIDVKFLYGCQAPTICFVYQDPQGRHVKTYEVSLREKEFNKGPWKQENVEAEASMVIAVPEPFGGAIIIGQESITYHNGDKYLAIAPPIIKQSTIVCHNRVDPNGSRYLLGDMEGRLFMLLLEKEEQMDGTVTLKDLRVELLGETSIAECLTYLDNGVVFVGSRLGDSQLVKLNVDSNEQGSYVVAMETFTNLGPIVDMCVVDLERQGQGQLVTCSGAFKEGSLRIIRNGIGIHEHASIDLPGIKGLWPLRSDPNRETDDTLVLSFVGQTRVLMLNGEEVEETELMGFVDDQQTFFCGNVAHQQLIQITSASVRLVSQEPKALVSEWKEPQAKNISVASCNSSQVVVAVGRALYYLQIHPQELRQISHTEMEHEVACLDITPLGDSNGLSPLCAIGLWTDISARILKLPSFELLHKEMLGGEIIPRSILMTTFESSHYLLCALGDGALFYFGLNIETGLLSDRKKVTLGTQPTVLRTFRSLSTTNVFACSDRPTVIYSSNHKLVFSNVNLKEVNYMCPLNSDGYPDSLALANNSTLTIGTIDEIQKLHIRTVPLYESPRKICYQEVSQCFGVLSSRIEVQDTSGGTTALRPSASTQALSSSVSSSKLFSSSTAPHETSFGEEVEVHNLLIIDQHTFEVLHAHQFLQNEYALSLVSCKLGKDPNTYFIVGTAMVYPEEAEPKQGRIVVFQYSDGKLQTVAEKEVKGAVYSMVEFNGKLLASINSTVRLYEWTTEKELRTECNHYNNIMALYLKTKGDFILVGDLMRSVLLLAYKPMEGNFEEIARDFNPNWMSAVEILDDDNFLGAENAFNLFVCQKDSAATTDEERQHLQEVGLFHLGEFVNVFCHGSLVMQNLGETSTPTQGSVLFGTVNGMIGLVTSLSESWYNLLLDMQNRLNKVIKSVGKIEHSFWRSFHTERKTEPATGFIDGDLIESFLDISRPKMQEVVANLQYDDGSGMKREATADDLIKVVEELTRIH
Method in brief: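 TR-FRET ratio 520/490 nm; 70 μs delay before read to suppress background.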

CDK12–cyclin K and DDB1 [2] = target: T1, CDK12–cyclin K and DDB1; assay: TR-FRET Kd determination, quadratic fit, 50 nM or 10 nM CDK12–cyclin K; type: binding; conditions: for Kd: n = 1
Description: Equation (2) is a quadratic binding equation used for Kd determination,where Top and Bottom refer to the curve plateaus. […]

[3] = system: cyclin K–eGFP degradation reporter; assay: Cyclin K reporter stability analysis (dual-color cyclin K–eGFP reporter); type: cell-based, human
Method in brief: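 A 5 h treatment of HEK293T–Cas9 cells expressing the degradation reporter preceded flow cytometry; eGFP over mCherry, normalized to DMSO.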

HEK293T cells = assay: Drug sensitivity assay (CellTiter-Glo viability) with or without MLN4924 pretreatment; type: cell-based, human; conditions: for EC50: Homo sapiens, HEK-293T; for Toxicity rescue: MLN4924-mediated cytotoxicity rescue, 10 µM used where n.d.
Method in brief: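 Luminescent ATP read-out (CellTiter-Glo) after 3 days of drug exposure, normalised to DMSO controls. Cells were HEK293T–Cas9, pretreated with 100 nM MLN4924 or DMSO for 2 h before drug dispensing.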

CDK12–cyclin K = CDK12–cyclin K (Homo sapiens, UniProt Q9NYV4); assay: Lanthascreen kinase binding assay, CDK12; conditions: for Lanthascreen raw signal, sheet CDK12: series r1, duplicates
Chain of CDK12–cyclin K (Q9NYV4 713-1052): as the sequence (Q9NYV4 713-1052 K965R) above, with R253K counted along it
Chain of CDK12–cyclin K (O75909 1-267 partner limits assumed): as the sequence (O75909 1-267 partner) above
Procedure: (§1) Lanthascreen experiments were performed using commercially available reagents (Thermo Fisher) and according to the manufacturer’s instructions.

CDK9–cyclin T = target: T2, CDK9–cyclin T (Homo sapiens, UniProt P50750); assay: Lanthascreen kinase binding assay, CDK9; conditions: for Lanthascreen TR-FRET signal (raw ratio), sheet CDK9: first titration set (r1), duplicates
T2 construct: purchased Thermo Fisher
T2 sequence (P50750 whole entry): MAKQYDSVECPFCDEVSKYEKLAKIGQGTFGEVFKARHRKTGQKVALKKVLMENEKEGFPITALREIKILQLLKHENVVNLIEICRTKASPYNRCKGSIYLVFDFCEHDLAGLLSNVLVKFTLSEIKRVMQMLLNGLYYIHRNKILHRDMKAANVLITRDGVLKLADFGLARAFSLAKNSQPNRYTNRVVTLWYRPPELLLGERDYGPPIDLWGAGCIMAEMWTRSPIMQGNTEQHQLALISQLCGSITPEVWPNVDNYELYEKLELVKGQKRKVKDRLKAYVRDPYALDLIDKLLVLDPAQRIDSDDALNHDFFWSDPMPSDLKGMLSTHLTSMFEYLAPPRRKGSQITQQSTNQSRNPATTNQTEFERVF
T2 sequence (O60563 whole entry partner): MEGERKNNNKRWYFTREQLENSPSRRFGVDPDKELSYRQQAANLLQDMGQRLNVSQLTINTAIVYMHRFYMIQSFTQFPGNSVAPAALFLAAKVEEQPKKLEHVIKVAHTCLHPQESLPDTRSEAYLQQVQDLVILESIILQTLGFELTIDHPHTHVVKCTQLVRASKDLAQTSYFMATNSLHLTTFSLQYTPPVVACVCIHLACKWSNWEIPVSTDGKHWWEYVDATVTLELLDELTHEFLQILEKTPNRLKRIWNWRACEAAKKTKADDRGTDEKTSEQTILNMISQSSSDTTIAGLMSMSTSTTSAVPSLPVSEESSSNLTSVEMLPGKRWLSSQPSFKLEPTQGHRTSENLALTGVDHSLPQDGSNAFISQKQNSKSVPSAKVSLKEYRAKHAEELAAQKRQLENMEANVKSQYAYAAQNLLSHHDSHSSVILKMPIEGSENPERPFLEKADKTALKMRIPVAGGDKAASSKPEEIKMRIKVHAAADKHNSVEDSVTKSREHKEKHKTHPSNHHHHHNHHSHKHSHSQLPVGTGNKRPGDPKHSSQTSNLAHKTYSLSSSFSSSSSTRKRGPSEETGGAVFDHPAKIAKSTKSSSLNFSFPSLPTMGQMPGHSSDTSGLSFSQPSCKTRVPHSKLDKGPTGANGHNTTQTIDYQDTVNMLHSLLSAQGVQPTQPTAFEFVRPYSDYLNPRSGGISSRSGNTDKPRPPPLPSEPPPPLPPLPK
Procedure: as §1

CDK2–cyclin A = target: T3, CDK2–cyclin A (Homo sapiens, UniProt P24941); assay: Lanthascreen kinase binding assay, CDK2; conditions: for Lanthascreen signal, sheet CDK2: raw replicates, experiment r1-r11
T3 construct: purchased Thermo Fisher
Procedure: as §1

[4] = source data sheet correlations, read-out: TR-FRET EC50
[5] = Supplementary Table 2, HEK293T viability, 72 h, compound alone, read-out: Cellular assays EC50

In the case of `CCC(CO)Nc1nc(NCc2ccc(-c3ccccc3)cc2)c2ncn(C(C)C)c2n1` (stereo not shown) [DS16], the “TR-FRET signal, individual replicate” value (CDK12–cyclin K and DDB1 [1]; compound concentration 0.468 nM) is reported as 0.2708 and 0.2758 and 0.8924 and 0.6371, the “TR-FRET signal, individual replicate” value (CDK12–cyclin K and DDB1 [1]; compound concentration 2.16 nM) is reported as 0.3875 and 0.4113 and 0.3298 and 0.5644 and the “TR-FRET signal, individual replicate” value (CDK12–cyclin K and DDB1 [1]; compound concentration 3.6 nM) is reported as 0.6563 and 0.6817 and 0.5785 and 0.7591. For the same molecule, the “TR-FRET signal, individual replicate” value (CDK12–cyclin K and DDB1 [1]; compound concentration 7.92001 nM) was 1.219 and 1.2973 and 0.9793 and 1.183, the “TR-FRET signal, individual replicate” value (CDK12–cyclin K and DDB1 [1]; compound concentration 15.84 nM) was 2.2073 and 2.2521 and 2.043 and 2.171 and the “TR-FRET signal, individual replicate” value (CDK12–cyclin K and DDB1 [1]; compound concentration 30.96 nM) was 3.25 and 3.347 and 3.281 and 3.173. The “TR-FRET signal, individual replicate” value (CDK12–cyclin K and DDB1 [1]; compound concentration 62.6401 nM) was 3.39 and 3.868 and 3.793 and 3.73, the “TR-FRET signal, individual replicate” value (CDK12–cyclin K and DDB1 [1]; compound concentration 125.28 nM) was 3.865 and 4.101 and 4.033 and 4.091 and the “TR-FRET signal, individual replicate” value (CDK12–cyclin K and DDB1 [1]; compound concentration 244.8 nM) was 3.936 and 4.169 and 4.142 and 4.064. For the same molecule, the “TR-FRET signal, individual replicate” value (CDK12–cyclin K and DDB1 [1]; compound concentration 993.601 nM) was 4.054 and 4.241 and 4.216 and 4.146, the “TR-FRET signal, individual replicate” value (CDK12–cyclin K and DDB1 [1]; compound concentration 2001.6 nM) was 3.9849 and 4.219 and 4.148 and 4.067 and the “DDB1–CDK12 complex formation, result in words” value (CDK12–cyclin K and DDB1 [1]; in vitro TR-FRET) was “activity equivalent to CR8”. The EC50 (CDK12–cyclin K and DDB1 [1]; in vitro complex formation, 50 nM CDK12–cyclin K, 100 nM DDB1, text and figures, read-out: TR-FRET EC50) was 17 ± 1 nM, the EC50 (CDK12–cyclin K and DDB1 [1]; sheet MOESM7, read-out: log TR-FRET EC50 (converted)) was 16.7 nM and the EC50 (CDK12–cyclin K and DDB1 [1]; [4]) was 16.7 nM. The Kd (CDK12–cyclin K and DDB1 [2]; 10 nM CDK12-cyclin K + 100 nM DDB1) was 4 ± 1 nM, the TR-FRET signal (CDK12–cyclin K and DDB1 [2]; 10 nM CDK12-cyclin K, compound 0.468 nM) was 0.1087 and the TR-FRET signal (CDK12–cyclin K and DDB1 [2]; 10 nM CDK12-cyclin K, compound 2.16 nM) was 0.1516. For the same molecule, the TR-FRET signal (CDK12–cyclin K and DDB1 [2]; 10 nM CDK12-cyclin K, compound 3.6 nM) was 0.2175, the TR-FRET signal (CDK12–cyclin K and DDB1 [2]; 10 nM CDK12-cyclin K, compound 7.92 nM) was 0.2964 and the TR-FRET signal (CDK12–cyclin K and DDB1 [2]; 10 nM CDK12-cyclin K, compound 15.84 nM) was 0.3471. It also gave a TR-FRET signal (CDK12–cyclin K and DDB1 [2]; 10 nM CDK12-cyclin K, compound 30.96 nM) of 0.4043, a TR-FRET signal (CDK12–cyclin K and DDB1 [2]; 10 nM CDK12-cyclin K, compound 62.6399 nM) of 0.4639 and a TR-FRET signal (CDK12–cyclin K and DDB1 [2]; 10 nM CDK12-cyclin K, compound 125.279 nM) of 0.4363. The TR-FRET signal (CDK12–cyclin K and DDB1 [2]; 10 nM CDK12-cyclin K, compound 244.8 nM) was 0.4586, the TR-FRET signal (CDK12–cyclin K and DDB1 [2]; 10 nM CDK12-cyclin K, compound 993.6 nM) was 0.4753 and the TR-FRET signal (CDK12–cyclin K and DDB1 [2]; 10 nM CDK12-cyclin K, compound 2001.6 nM) was 0.4769. For the same molecule, the Kd (CDK12–cyclin K and DDB1 [2]; 50 nM CDK12-cyclin K + 100 nM DDB1) was 6 ± 2 nM, the TR-FRET signal (CDK12–cyclin K and DDB1 [2]; 50 nM CDK12-cyclin K, compound 0.468 nM) was 0.2249 and the TR-FRET signal (CDK12–cyclin K and DDB1 [2]; 50 nM CDK12-cyclin K, compound 2.16 nM) was 0.2842. It also gave a TR-FRET signal (CDK12–cyclin K and DDB1 [2]; 50 nM CDK12-cyclin K, compound 3.6 nM) of 0.3938, a TR-FRET signal (CDK12–cyclin K and DDB1 [2]; 50 nM CDK12-cyclin K, compound 7.92 nM) of 0.6539 and a TR-FRET signal (CDK12–cyclin K and DDB1 [2]; 50 nM CDK12-cyclin K, compound 15.84 nM) of 1.0227. The TR-FRET signal (CDK12–cyclin K and DDB1 [2]; 50 nM CDK12-cyclin K, compound 30.96 nM) was 1.706, the TR-FRET signal (CDK12–cyclin K and DDB1 [2]; 50 nM CDK12-cyclin K, compound 62.6399 nM) was 2.089 and the TR-FRET signal (CDK12–cyclin K and DDB1 [2]; 50 nM CDK12-cyclin K, compound 125.279 nM) was 2.303. For the same molecule, the TR-FRET signal (CDK12–cyclin K and DDB1 [2]; 50 nM CDK12-cyclin K, compound 244.8 nM) was 2.498, the TR-FRET signal (CDK12–cyclin K and DDB1 [2]; 50 nM CDK12-cyclin K, compound 993.6 nM) was 2.704 and the TR-FRET signal (CDK12–cyclin K and DDB1 [2]; 50 nM CDK12-cyclin K, compound 2001.6 nM) was 2.6928. It also gave a DC50 ([3]; Supplementary Table 2, HEK293T cycK-eGFP reporter, 5 h, read-out: Cellular assays DC50) of 1030 nM, an EC50 (HEK293T cells; Supplementary Fig. 5, HEK293T, CellTiter Glo, 72h, pre-treatment with 100 nM MLN4924, read-out: Viability EC50, with MLN4924) of 15000 nM and an EC50 (HEK293T cells; [5]) of 600 nM. The “% MLN4924 rescue” value (HEK293T cells; PCA input) was 1490% and the Toxicity rescue (HEK293T cells; Supplementary Table 2) was 1567%.
`COc1cc2nc(CN3CCc4sccc4C3)[nH]c(=O)c2cc1OC` [Z12] gave an EC50 (CDK12–cyclin K and DDB1 [1]; [4]) of 833 nM, a DC50 ([3]; source data sheet correlations, read-out: DC50) of 3490 nM and an EC50 (HEK293T cells; [5]) of 1370 nM. For the same molecule, the Toxicity rescue (HEK293T cells; Supplementary Table 2) was 49%, the IC50 (CDK12–cyclin K; Supplementary Table 2, read-out: Lanthascreen IC50 [nM] CDK12) was 1940 nM and the “Lanthascreen raw signal, sheet CDK12” value (CDK12–cyclin K; compound 1.02544 nM) was 0.008768 and 0.008409. The “Lanthascreen raw signal, sheet CDK12” value (CDK12–cyclin K; compound 3.15521 nM) was 0.009734 and 0.0102, the “Lanthascreen raw signal, sheet CDK12” value (CDK12–cyclin K; compound 9.46563 nM) was 0.009031 and 0.008491 and the “Lanthascreen raw signal, sheet CDK12” value (CDK12–cyclin K; compound 31.5521 nM) was 0.008872 and 0.01072. For the same molecule, the “Lanthascreen raw signal, sheet CDK12” value (CDK12–cyclin K; compound 99.3891 nM) was 0.01101 and 0.009378, the “Lanthascreen raw signal, sheet CDK12” value (CDK12–cyclin K; compound 315.521 nM) was 0.008266 and 0.00879 and the “Lanthascreen raw signal, sheet CDK12” value (CDK12–cyclin K; compound 3155.21 nM) was 0.006586 and 0.00831. The “Lanthascreen raw signal, sheet CDK12” value (CDK12–cyclin K; compound 10002 nM) was 0.00787 and 0.005759, the IC50 (CDK9–cyclin T; Supplementary Table 2, read-out: Lanthascreen IC50 [nM] CDK9) was 2230 nM and the “Lanthascreen TR-FRET signal (raw ratio), sheet CDK9” value (CDK9–cyclin T; compound 1.02544 nM) was 0.01363 and 0.01444. For the same molecule, the “Lanthascreen TR-FRET signal (raw ratio), sheet CDK9” value (CDK9–cyclin T; compound 3.15521 nM) was 0.01374 and 0.01202, the “Lanthascreen TR-FRET signal (raw ratio), sheet CDK9” value (CDK9–cyclin T; compound 9.46563 nM) was 0.01193 and 0.01374 and the “Lanthascreen TR-FRET signal (raw ratio), sheet CDK9” value (CDK9–cyclin T; compound 31.5521 nM) was 0.01293 and 0.01321. The “Lanthascreen TR-FRET signal (raw ratio), sheet CDK9” value (CDK9–cyclin T; compound 99.3891 nM) was 0.01614 and 0.01565, the “Lanthascreen TR-FRET signal (raw ratio), sheet CDK9” value (CDK9–cyclin T; compound 315.521 nM) was 0.01216 and 0.01193 and the “Lanthascreen TR-FRET signal (raw ratio), sheet CDK9” value (CDK9–cyclin T; compound 3155.21 nM) was 0.009114 and 0.00834. For the same molecule, the “Lanthascreen TR-FRET signal (raw ratio), sheet CDK9” value (CDK9–cyclin T; compound 10002 nM) was 0.005656 and 0.005947, the “Lanthascreen signal, sheet CDK2” value (CDK2–cyclin A; Compound 1.02544 nM) was 0.01113 and 0.009882 and the “Lanthascreen signal, sheet CDK2” value (CDK2–cyclin A; Compound 3.15521 nM) was 0.009971 and 0.01033. For the same molecule, the “Lanthascreen signal, sheet CDK2” value (CDK2–cyclin A; Compound 9.46563 nM) was 0.01229 and 0.009342, the “Lanthascreen signal, sheet CDK2” value (CDK2–cyclin A; Compound 31.5521 nM) was 0.009577 and 0.009489 and the “Lanthascreen signal, sheet CDK2” value (CDK2–cyclin A; Compound 99.3891 nM) was 0.0109 and 0.009513. For the same molecule, the “Lanthascreen signal, sheet CDK2” value (CDK2–cyclin A; Compound 315.521 nM) was 0.01017 and 0.01118, the “Lanthascreen signal, sheet CDK2” value (CDK2–cyclin A; Compound 3155.21 nM) was 0.009276 and 0.007116 and the “Lanthascreen signal, sheet CDK2” value (CDK2–cyclin A; Compound 10002 nM) was 0.008712 and 0.007113. For the same molecule, the IC50 (CDK2–cyclin A; Lanthascreen, average, Extended Data Fig. 8, read-out: CDK2 IC50) was > 10000 nM and the IC50 (CDK2–cyclin A; Supplementary Table 2, read-out: Lanthascreen IC50 [nM] CDK2) was > 10000 nM.
